Experimental data published in ChEMBL document CHEMBL5050859, “Gpx4 inhibitors, pharmaceutical compositions thereof, and their use for treating gpx4-mediated diseases” (2021).

The compounds below were run on Huh-7 (assay: Antiproliferative activity against human Huh-7 cells after 24 hrs by Cell Titer Glo assay). Settings: Huh-7, 24 h.
Format: functional, cell-based

| Compound | EC50 [nM] |
| --- | --- |
| O=C(NCCc1ccccc1)C(c1ccc([N+](=O)[O-])cc1)N(C(=O)CCl)c1cccc(Cl)c1 (stereo not drawn) | 100 |
| C#CC(=O)N(c1ccc(C#N)cc1)C(C(=O)NC(C)(C)C)c1ccc(N)cc1 (stereo not drawn) | ≤ 100 |
| C#CC(=O)N(c1ccc(N)cc1)C(C(=O)NC(C)(C)C)c1cccc(N)c1 (stereo not drawn) | 2000 |
| C#CC(=O)N(c1cccc(Cl)c1)C1(C(=O)NCC(=O)NCc2ccccc2C#N)CCOCC1 | 100 |
| C=CC(=O)N(Cc1cccc(O)c1)C1(C(=O)NCc2ccccc2)CCOCC1 | > 10000 |
| C#CC(=O)N(c1cccc(C(N)=O)c1)C(C(=O)NCc1ccccc1)c1ccc(N)cc1 (stereo not drawn) | > 10000 |
| C#CC(=O)N(c1ccc2c(c1)C(=O)OC2)C1(C(=O)NCc2ccccc2)CCOCC1 | ≤ 100 |
| O=C(CCl)N(c1cccc2nsnc12)C1(C(=O)NCc2ccccc2)CCOCC1 | 100 |
| C#CC(=O)N(c1ccc2c(cnn2C)c1)C1(C(=O)NCc2ccccc2)CCC(=O)CC1 | ≤ 100 |
| Cn1ncc2cc(N(C(=O)C#CCO)C3(C(=O)NCc4ccccc4)CCOCC3)ccc21 | > 10000 |
| C#CC(=O)N(c1cccc(Cl)c1)C(C(=O)NCc1ccc(C#N)cc1)c1ccccc1 (stereo not drawn) | ≤ 100 |
| CC#CC(=O)N(c1ccc2c(cnn2C)c1)C1(C(=O)NCc2ccccc2)CCCC(C(=O)OC)C1 (stereo not drawn) | > 10000 |
| O=C(CCl)N(c1cccc2nsnc12)C1(C(=O)NCCc2ccccc2)CCOCC1 | 500 |
| C#CC(=O)N(c1cccc(-c2ccn(C)n2)c1)C1(C(=O)NCc2ccccc2)CCOCC1 | 100 |
| CC#CC(=O)N(c1ccc2c(cnn2C)c1)C1(C(=O)NCc2ccccc2)CCCOC1 (stereo not drawn) | 2000 |
| CC(Cl)C(=O)N(c1ccc2c(cnn2C)c1)C1(C(=O)NCc2ccccc2)CCOCC1 (stereo not drawn) | > 10000 |
| C#CC(=O)N(c1ccc(C(=O)OC)cc1)C(C(=O)NC(C)(C)C)c1ccc(N)cc1 (stereo not drawn) | ≤ 100 |
| CC#CC(=O)N(c1ccc(Cl)c(Cl)c1)C(C(=O)NCc1ccccc1)c1ccccc1 (stereo not drawn) | > 10000 |
| C#CC(=O)N(c1cccc(Cl)c1F)C(C(=O)NCc1ccccc1)c1cccc(N)c1 (stereo not drawn) | ≤ 100 |
| C#CC(=O)N(c1cccc(C(=O)OC)c1)C(C(=O)NCc1ccccc1)c1cccc(N)c1 (stereo not drawn) | ≤ 100 |
| C#CC(=O)N(c1cccc(Cl)c1)C1(C(=O)NCC(=O)NCc2ccccc2)CCOCC1 | 100 |
| C#CC(=O)N(c1cccc(Cl)c1)C1(C(=O)NCC(=O)NCc2ccccc2Cl)CCOCC1 | 100 |
| COc1ccc(N(C(=O)CCl)C(C(=O)NCCc2ccccc2)c2ccc(NC(=O)CO)cc2)cc1Cl (stereo not drawn) | 500 |
| C#CC(=O)N(c1ccc2nncn2c1)C(C(=O)NCc1ccccc1)c1ccccc1 (stereo not drawn) | 100 |
| C#CC(=O)N(c1ccc2scnc2c1)C1(C(=O)NCc2ccccc2)CCOCC1 | 100 |

| Compound | EC50 [nM] |
| --- | --- |
| C#CC(=O)N(c1cccc2nonc12)C(C(=O)NCc1ccccc1)c1ccccc1 (stereo not drawn) | 100 |
| C#CC(=O)N(Cc1cccc(O)c1)C1(C(=O)NCc2ccccc2)CCOCC1 | ≤ 100 |
| C#CC(=O)N(c1ccc(OC)cc1)C(C(=O)NCc1ccccc1)c1cccc(N)c1 (stereo not drawn) | ≤ 100 |
| C#CC(=O)N(c1ccc(Cl)cc1)C(C(=O)NCc1ccccc1)c1ccc(N)cc1 (stereo not drawn) | ≤ 100 |
| C#CC(=O)N(c1cccc(Cl)c1)C(C(=O)NCc1ccccc1)c1ccc(F)cc1 (stereo not drawn) | ≤ 100 |
| C#CC(=O)N(c1ccc(Cl)cc1)C(C(=O)NC(C)(C)C)c1cccc(N)c1 (stereo not drawn) | ≤ 100 |
| C#CC(=O)N(c1cccc(Cl)c1)C1(C(=O)NCc2ccccc2)CCC(C(=O)OC)CC1 (stereo not drawn) | ≤ 100 |
| Cn1ncc2cc(N(C(=O)CO)C3(C(=O)NCc4ccccc4)CCOCC3)ccc21 | > 10000 |
| C#CC(=O)N(c1cccc(S(N)(=O)=O)c1)C(C(=O)NC(C)(C)C)c1ccc(N)cc1 (stereo not drawn) | > 10000 |
| C#CC(=O)N(c1cccc(Cl)c1)C1(C(=O)NCC(=O)O)CCOCC1 | > 10000 |
| COc1ccc(N(C(=O)CCl)C2(C(=O)NCc3ccccc3)CCOCC2)cc1Cl | 100 |
| C#CC(=O)N(c1ccc2scnc2c1)C(C(=O)NCc1ccccc1)c1ccccc1 (stereo not drawn) | ≤ 100 |
| C#CC(=O)N(c1cccc(O)c1)C(C(=O)NCc1ccccc1)c1ccc(N)cc1 (stereo not drawn) | 2000 |
| N#CCC(=O)N(c1cccc(Cl)c1)C1(C(=O)NCc2ccccc2)CCOCC1 | > 10000 |
| C#CC(=O)N(c1cccc(Cl)c1)[C@]1(C(=O)NCc2ccccc2)CC[C@H](O)CC1 | 100 |
| C#CC(=O)N(c1cccc(Cl)c1)C1(C(=O)NCC(=O)N2CCCC(CO)C2)CCOCC1 (stereo not drawn) | 2000 |
| COc1ccc(N(C(=O)C#CCO)C(C(=O)NCCc2ccccc2)c2cccs2)cc1Cl (stereo not drawn) | 2000 |
| C=CC(=O)N(c1cccc(Cl)c1)C1(C(=O)NCc2ccccc2)CCOCC1 | > 10000 |
| C#CC(=O)N(c1ccc2cnn(C)c2c1)C(C(=O)NCc1ccccc1)c1ccccc1 (stereo not drawn) | ≤ 100 |
| COc1cccc(N(C(=O)CCl)C(C(=O)NCCc2ccccc2)c2ccc([N+](=O)[O-])cc2)c1 (stereo not drawn) | 100 |
| C#CC(=O)N(C1(C(=O)NCc2ccccc2)CCOCC1)C1(c2ccccc2)CC1 | ≤ 100 |
| C#CC(=O)N(c1ccc2c(c1)OCO2)C1(C(=O)NCc2ccccc2)CCOCC1 | 100 |
| C#CC(=O)N(c1ccc2c(ccn2C)c1)C1(C(=O)NCc2ccccc2)CCOCC1 | ≤ 100 |
| C#CC(=O)N(c1cccc(CO)c1)C(C(=O)NCc1ccccc1)c1ccc(N)cc1 (stereo not drawn) | 2000 |
| C#CC(=O)N(c1cccc(Cl)c1)C1(C(=O)NCC(=O)NCc2ccccc2O)CCOCC1 | 100 |

| Compound | EC50 [nM] |
| --- | --- |
| C#CC(=O)N(c1ccc(Cl)cc1)C(C(=O)NCc1ccccc1)c1cccc(N)c1 (stereo not drawn) | ≤ 100 |
| C#CC(=O)N(c1cccc2nsnc12)C1(C(=O)NCc2ccccc2)CCOCC1 | ≤ 100 |
| C#CC(=O)N(c1ccc2c(c1)ncn2C)C1(C(=O)NCc2ccccc2)CCOCC1 | 500 |
| C#CC(=O)N(c1ccc(Cl)cc1)C(C(=O)NC(C)(C)C)c1ccc(N)cc1 (stereo not drawn) | 100 |
| C#CC(=O)N(c1ccc2c(cnn2C)c1)C(C(=O)NCc1ccccc1)c1ccccc1 (stereo not drawn) | ≤ 100 |
| C#CC(=O)N(c1ccc(NS(C)(=O)=O)cc1)C(C(=O)NCc1ccccc1)c1ccc(N)cc1 (stereo not drawn) | 2000 |
| C#CC(=O)N(c1ccn(C)c(=O)c1)C(C(=O)NCc1ccccc1)c1ccccc1 (stereo not drawn) | 2000 |
| Nc1ccc(N(C(=O)CCl)C(C(=O)NCCc2ccccc2)c2cccs2)cc1 (stereo not drawn) | 2000 |
| C#CC(=O)N(Cc1cc[nH]n1)C1(C(=O)NCc2ccccc2)CCOCC1 | > 10000 |
| C#CC(=O)N(c1ccc2c(cnn2C)c1)C1(C(=O)NCc2ccccc2)CCCOC1 (stereo not drawn) | ≤ 100 |
| C#CC(=O)N(c1cccc(CO)c1)C(C(=O)NCc1ccccc1)c1cccc(N)c1 (stereo not drawn) | 2000 |
| C=CC(=O)N(c1ccc2c(cnn2C)c1)C1(C(=O)NCc2ccccc2)CCOCC1 | > 10000 |
| C#CC(=O)N(c1cccc(O)c1)C(C(=O)NCc1ccccc1)c1cccc(N)c1 (stereo not drawn) | ≤ 100 |
| C#CC(=O)N(c1cccc(Cl)c1)C1(C(=O)NCC(=O)N2CCCC(O)C2)CCOCC1 (stereo not drawn) | 2000 |
| C#CC(=O)N(c1cccc(NS(C)(=O)=O)c1)C(C(=O)NCc1ccccc1)c1cccc(N)c1 (stereo not drawn) | 2000 |
| Cn1ncc2cc(N(C(=O)CCl)C3(C(=O)NCc4ccccc4)CCOCC3)ccc21 | 500 |
| C#CC(=O)N(c1cccc(Cl)c1)C1(C(=O)NCC(=O)Nc2ccccc2)CCOCC1 | 100 |
| C#CC(=O)N(c1cccc(NC(C)=O)c1)C(C(=O)NCc1ccccc1)c1ccc(N)cc1 (stereo not drawn) | 2000 |
| COc1ccc(N(C(=O)CCl)C(C(=O)NCCc2ccccc2)c2cccc(N)c2)cc1Cl (stereo not drawn) | 100 |
| C#CC(=O)N(c1ccc2[nH]ccc2c1)C1(C(=O)NCc2ccccc2)CCOCC1 | 2000 |
| C#CC(=O)N(c1cccc2c1CCC2=O)C1(C(=O)NCc2ccccc2)CCOCC1 | ≤ 100 |
| C#CC(=O)N(c1cccc(Cl)c1)C(C(=O)NCC1CC1)c1ccccc1 (stereo not drawn) | ≤ 100 |
| C#CC(=O)N(c1ccc2ncn(C)c2c1)C1(C(=O)NCc2ccccc2)CCOCC1 | 500 |
| C#CC(=O)N(c1cccc(Cl)c1)C(C(=O)NCc1ccccc1)c1cccc(CCO)c1 (stereo not drawn) | 100 |
| C#CC(=O)N(c1cccc(Cl)c1Cl)C(C(=O)NCc1ccccc1)c1ccccc1 (stereo not drawn) | ≤ 100 |

| Compound | EC50 [nM] |
| --- | --- |
| C#CC(=O)N(c1cccc(-c2cc[nH]n2)c1)C1(C(=O)NCc2ccccc2)CCOCC1 | 100 |
| C#CC(=O)N(c1ccc(C#N)cc1)C(C(=O)NCc1ccccc1)c1ccc(N)cc1 (stereo not drawn) | ≤ 100 |
| COc1ccc(N(C(=O)CCl)C2(C(=O)NCCc3ccccc3)CCOCC2)cc1Cl | ≤ 100 |
| C#CC(=O)N(c1ccc(OC)c(Cl)c1)C(C(=O)NC(C)(C)C)c1cccc(N)c1 (stereo not drawn) | 100 |
| C#CC(=O)N(c1ccc(C(=O)OC)cc1)C(C(=O)NCc1ccccc1)c1ccc(N)cc1 (stereo not drawn) | ≤ 100 |
| Cn1ncc2cc(N(C(=O)C(F)F)C3(C(=O)NCc4ccccc4)CCOCC3)ccc21 | > 10000 |
| C#CC(=O)N(Cc1ccccc1)C(C(=O)NCc1ccccc1)c1cccc(N)c1 (stereo not drawn) | 500 |
| CC(C)N(C(=O)CCl)C(C(=O)NCCc1ccccc1)c1cccs1 (stereo not drawn) | > 10000 |
| C#CC(=O)N(c1ccc(OC)c(Cl)c1)C(C(=O)NCc1ccccc1)c1cccc(N)c1 (stereo not drawn) | ≤ 100 |
| C#CC(=O)N(c1cccc2nsnc12)C(C(=O)NCc1ccccc1)c1ccccc1 (stereo not drawn) | ≤ 100 |
| C#CC(=O)N(c1ccc2c(c1)C(=O)OC2)C(C(=O)NCc1ccccc1)c1ccccc1 (stereo not drawn) | ≤ 100 |
| COc1ccc(N(C(=O)CCl)C(C(=O)NCc2ccccc2)c2cccs2)cc1Cl (stereo not drawn) | 500 |
| C#CC(=O)N(c1cccc(Cl)c1)C(C(=O)NCc1ccccc1)c1ccccc1F (stereo not drawn) | ≤ 100 |
| Cn1ncc2cc(N(C(=O)CCBr)C3(C(=O)NCc4ccccc4)CCOCC3)ccc21 | > 10000 |
| C#CC(=O)N(c1ccc(C#N)cc1)C(C(=O)NCc1ccccc1)c1cccc(N)c1 (stereo not drawn) | ≤ 100 |
| C#CC(=O)N(c1cccc(Cl)c1)C1(C(=O)NCc2ccccc2)CCC(F)(F)CC1 | ≤ 100 |
| C#CC(=O)N(c1ccc(CO)cc1)C(C(=O)NC(C)(C)C)c1cccc(N)c1 (stereo not drawn) | 2000 |
| C#CC(=O)N(c1cccc(Cl)c1)C(C(=O)NCc1ccccc1)C1CCC(C(=O)OC)CC1 (stereo not drawn) | 100 |
| C#CC(=O)N(c1ccc2c(c1)OC(F)(F)O2)C(C(=O)NCc1ccccc1)c1ccccc1 (stereo not drawn) | ≤ 100 |
| Nc1ccc(C(C(=O)NCCc2ccccc2)N(C(=O)CCl)c2cccc(Cl)c2)cc1 (stereo not drawn) | 500 |
| C#CC(=O)N(c1cccc(C(=O)OC)c1)C(C(=O)NCc1ccccc1)c1cccs1 (stereo not drawn) | ≤ 100 |
| C#CC(=O)N(c1ccc2c(cnn2C)c1)C1(C(=O)NCc2ccccc2)CCCC(C(=O)OC)C1 (stereo not drawn) | ≤ 100 |
| C#CC(=O)N(c1cccc(Cl)c1)C(C(=O)NCc1ccccc1F)c1ccccc1 (stereo not drawn) | 100 |
